Source: patent US9464044B2, “Compound having ability to inhibit 11Beta-HSD1 enzyme or pharmaceutically acceptable salt thereof, method for producing same, and pharmaceutical composition containing same as active ingredient” (AHN-GOOK PHARMACEUTICAL CO., LTD., priority 2012, dated 2016)

Biological target: 11β-HSD1 (Homo sapiens (Human), UniProt P28845)
Experiment: 11β-HSD1 inhibiting activity, HTRF assay with human microsomal fractions
Assay type: biochemical
Details: 160 nM cortisone, 200 μM NADPH, 2 h at 37° C.
Experimental: The inhibiting activity of 11β-HSD1 derived from microsomal fractions was measured using the HTRF assay (62CO2PEB, Cisbio). […] Europium (Eu^3+) cryptate and XL665-conjugated cortisol were then added to each well and incubated for an additional 2 h at room temperature. The Cortisol concentration was calculated u sing a calibration curve. The IC50 values were calculated from dose response curves using GraphPad Prism software.

Chain of 11β-HSD1 (P28845 whole entry): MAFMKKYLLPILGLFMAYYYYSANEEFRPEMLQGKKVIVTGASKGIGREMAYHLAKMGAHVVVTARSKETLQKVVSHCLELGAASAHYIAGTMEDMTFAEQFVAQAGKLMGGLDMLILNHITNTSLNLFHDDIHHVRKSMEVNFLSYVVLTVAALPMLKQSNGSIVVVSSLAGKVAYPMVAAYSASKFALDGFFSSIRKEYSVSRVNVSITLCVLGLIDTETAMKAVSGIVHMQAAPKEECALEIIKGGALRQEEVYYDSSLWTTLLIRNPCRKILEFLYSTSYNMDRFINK

Row | Compound | IC50
1 | Cc1c(Cl)cccc1S(=O)(=O)NCC1(C(=O)NC2C3CC4CC(C3)CC2C4)CC1 (stereo not drawn) [Example 1, N-(adamantan-2-yl)-1-[(3-chloro-2-methylbenzenesulfonylamino)methyl]cyclopropanecarboxamide] | 14.2 nM
2 | O=C(NC1C2CC3CC1CC(O)(C3)C2)C1(CNS(=O)(=O)c2ccccc2F)CC1 (stereo not drawn) [Example 2, 1-[(2-fluoro-benzenesulfonylamino)methyl]-N-(5-hydroxyadamantan-2-yl)cyclopropanecarboxamide] | 26.6 nM
3 | Cc1c(Cl)cccc1S(=O)(=O)NCC1(C(=O)NC2C3CC4CC2CC(C(N)=O)(C4)C3)CC1 (stereo not drawn) [Example 5, E-4-[1-((3-chloro-2-methyl-benzenesulfonylamino)methyl)cyclopropanecarboxamido]-adamantan-1-carboxylic acid amide] | 2.7 nM
4 | NC(=O)C12CC3CC(C1)C(NC(=O)C1(CNS(=O)(=O)c4cccc(Cl)c4)CC1)C(C3)C2 (stereo not drawn) [Example 7, E-4-[1-((3-chloro-benzenesulfonylamino)methyl)cyclopropanecarboxamido]-adamantan-1-carboxylic acid amide] | 2.6 nM
5 | NC(=O)C12CC3CC(C1)C(NC(=O)C1(CNS(=O)(=O)c4cc(F)cc(F)c4)CC1)C(C3)C2 (stereo not drawn) [Example 9, E-4-[1-((3,5-difluoro-benzenesulfonylamino)methyl)cyclopropanecarboxamido]-adamantan-1-carboxylic acid amide] | 608 nM
6 | Cc1cccc(F)c1S(=O)(=O)NCC1(C(=O)NC2C3CC4CC2CC(C(N)=O)(C4)C3)CC1 (stereo not drawn) [Example 10, E-4-[1-((2-fluoro-6-methyl-benzenesulfonylamino)methyl)cyclopropanecarboxamido]-adamantan-1-carboxylic acid amide] | 2.5 nM
7 | NC(=O)C12CC3CC(C1)C(NC(=O)C1(CNS(=O)(=O)c4cccc(F)c4F)CC1)C(C3)C2 (stereo not drawn) [Example 11, E-4-[1-((2,3-difluoro-benzenesulfonylamino)methyl)cyclopropanecarboxamido]-adamantan-1-carboxylic acid amide] | 10.4 nM
8 | Cc1cccc(F)c1S(=O)(=O)N(C)CC1(C(=O)NC2C3CC4CC2CC(C(N)=O)(C4)C3)CC1 (stereo not drawn) [Example 13, E-4-[1-((2-fluoro-N,6-dimethyl-benzenesulfonylamino)methyl)cyclopropanecarboxamido]-adamantan-1-carboxylic acid amide] | 2.8 nM
9 | Cc1cc(S(=O)(=O)NCC2(C(=O)NC3C4CC5CC3CC(C(N)=O)(C5)C4)CC2)c(Cl)cc1Cl (stereo not drawn) [Example 14, E-4-[1-((2,4-dichloro-5-methyl-benzenesulfonylamino)methyl)cyclopropanecarboxamido]-adamantan-1-carboxylic acid amide] | 13.3 nM
10 | Cc1cc(S(=O)(=O)NCC2(C(=O)NC3C4CC5CC3CC(C(N)=O)(C5)C4)CC2)c(F)cc1Cl (stereo not drawn) [Example 15, E-4-[1-((4-chloro-2-fluoro-5-methyl-benzenesulfonylamino)methyl)cyclopropanecarboxamido]-adamantan-1-carboxylic acid amide] | 28 nM
11 | NC(=O)C12CC3CC(C1)C(NC(=O)C1(CNS(=O)(=O)c4cc(Cl)c(Cl)cc4F)CC1)C(C3)C2 (stereo not drawn) [Example 16, E-4-[1-((4,5-dichloro-2-fluoro-benzenesulfonylamino)methyl)cyclopropanecarboxamido]-adamantan-1-carboxylic acid amide] | 5 nM
12 | NC(=O)C12CC3CC(C1)C(NC(=O)C1(CNS(=O)(=O)c4ccco4)CC1)C(C3)C2 (stereo not drawn) [Example 17, E-4-[1-((furan-2-sulfonylamino)methyl)cyclopropanecarboxamido]-adamantan-1-carboxylic acid amide] | 132 nM
13 | NC(=O)C12CC3CC(C1)C(NC(=O)C1(CNS(=O)(=O)c4cc(Cl)cc(Cl)c4)CC1)C(C3)C2 (stereo not drawn) [Example 18] | 23.9 nM
14 | NC(=O)C12CC3CC(C1)C(NC(=O)C1(CNS(=O)(=O)c4ccc(F)cc4C(F)(F)F)CC1)C(C3)C2 (stereo not drawn) [Example 20, E-4-[1-((2-(trifluoromethyl)-4-fluoro-benzenesulfonylamino)methyl)cyclopropanecarboxamido]-adamantan-1-carboxylic acid amide] | 102 nM
15 | NC(=O)C12CC3CC(C1)C(NC(=O)C1(CNS(=O)(=O)c4ccc(F)c(F)c4)CC1)C(C3)C2 (stereo not drawn) [Example 21, E-4-[1-((3,4-difluoro-benzenesulfonylamino)methyl)cyclopropanecarboxamido]-adamantan-1-carboxylic acid amide] | 30.8 nM
16 | NC(=O)C12CC3CC(C1)C(NC(=O)C1(CNC(=O)c4ccc(F)c(F)c4)CC1)C(C3)C2 (stereo not drawn) [Example 25] | 9.6 nM
17 | Cn1ccc2cc(S(=O)(=O)NCC3(C(=O)NC4C5CC6CC4CC(C(N)=O)(C6)C5)CC3)ccc21 (stereo not drawn) [Example 26, E-4-[1-((1-methyl-1H-indole-5-sulfonylamino)methyl)cyclopropanecarboxamido]-adamantan-1-carboxylic acid amide] | 1.2 nM
18 | CN(CC1(C(=O)NC23CC4CC(CC(C4)C2)C3)CC1)S(=O)(=O)c1ccccc1F [Example 31, N-(adamantan-1-yl)-1-((2-fluoro-N-methylbenzenesulfonylamino)methyl)cyclopropanecarboxamido] | 1.2 nM

Row | Compound | IC50
19 | CCN(CC1(C(=O)NC2C3CC4CC2CC(C(N)=O)(C4)C3)CC1)S(=O)(=O)c1ccccc1F (stereo not drawn) [Example 32, E-4-[1-((N-ethyl-fluoro-benzenesulfonylamino)methyl)cyclopropanecarboxamido]-adamantan-1-carboxylic acid amide] | 1.4 nM
20 | O=C(O)CC[C@]12C[C@@H]3C[C@H](C1)[C@@H](NC(=O)C1(CNS(=O)(=O)c4ccccc4F)CC1)[C@@H](C3)C2 [Example 33, E-3-(4-(1((2-fluoro-benzenesulfonylamino)methyl)cyclopropanecarboxamido)adamantan-1-yl)propanoic acid] | 1.5 nM
21 | NC(=O)CCC12CC3CC(C1)C(NC(=O)C1(CNS(=O)(=O)c4ccccc4F)CC1)C(C3)C2 (stereo not drawn) [Example 34, E-N-(5-(3-amino-3-oxopropyl)adamantan-2-yl)-1-((2-fluoro-benzenesulfonylamino)methyl)cyclopropanecarboxamide] | 29.9 nM
22 | Cc1cccc(F)c1S(=O)(=O)NC1(C(=O)NC2C3CC4CC2CC(C(N)=O)(C4)C3)CC1 (stereo not drawn) [Example 40, E-4-[1-(2-fluoro-6-methyl-benzenesulfonylamino)cyclopropanecarboxamido]-adamantan-1-carboxylic acid amide] | 1.7 nM
23 | Cc1c(Cl)cccc1S(=O)(=O)NC1(C(=O)NC2C3CC4CC2CC(C(N)=O)(C4)C3)CC1 (stereo not drawn) [Example 41, E-4-[1-(3-chloro-2-methyl-benzenesulfonylamino)cyclopropanecarboxamido]-adamantan-1-carboxylic acid amide] | 10 nM
24 | NC(=O)C12CC3CC(C1)C(NC(=O)C1(NS(=O)(=O)c4ccc(F)cc4)CC1)C(C3)C2 (stereo not drawn) [Example 42, E-4-[1-(4-fluoro-benzenesulfonylamino)cyclopropanecarboxamido]-adamantan-1-carboxylic acid amide] | 6.4 nM
25 | Cc1cc(S(=O)(=O)NC2(C(=O)NC3C4CC5CC3CC(C(N)=O)(C5)C4)CC2)c(Cl)cc1Cl (stereo not drawn) [Example 43, E-4-[1-(2,4-dichloro-5-methyl-benzenesulfonylamino)cyclopropanecarboxamido]-adamantan-1-carboxylic acid amide] | 29.7 nM
26 | NC(=O)C12CC3CC(C1)C(NC(=O)C1(NS(=O)(=O)c4ccc(F)cc4F)CC1)C(C3)C2 (stereo not drawn) [Example 44] | 79.1 nM
27 | NC(=O)C12CC3CC(C1)C(NC(=O)C1(NS(=O)(=O)c4cc(Cl)c(Cl)cc4F)CC1)C(C3)C2 (stereo not drawn) [Example 45, E-4-[1-(2-fluoro-4,5-dichloro-benzenesulfonylamino)cyclopropanecarboxamido]-adamantan-1-carboxylic acid amide] | 32.5 nM
28 | Cc1cc(S(=O)(=O)NC2(C(=O)NC3C4CC5CC3CC(C(N)=O)(C5)C4)CC2)c(F)cc1Cl (stereo not drawn) [Example 46, E-4-[1-(2-fluoro-4-chloro-5-methyl-benzenesulfonylamino)cyclopropanecarboxamido]-adamantan-1-carboxylic acid amide] | 34.7 nM
29 | NC(=O)C12CC3CC(C1)C(NC(=O)C1(NS(=O)(=O)c4ccc(F)c(F)c4F)CC1)C(C3)C2 (stereo not drawn) [Example 47, E-4-[1-(2,3,4-trifluoro-benzenesulfonylamino)cyclopropanecarboxamido]-adamantan-1-carboxylic acid amide] | 495 nM
30 | NC(=O)C12CC3CC(C1)C(NC(=O)C1(NS(=O)(=O)c4cccs4)CC1)C(C3)C2 (stereo not drawn) [Example 48, E-4-[1-(thiophen-2-sulfonylamino)cyclopropanecarboxamido]-adamantan-1-carboxylic acid amide] | 62.8 nM
31 | O=C(NC1CC2CCC1C2)C1(NS(=O)(=O)c2cccc(Cl)c2)CC1 (stereo not drawn) [Example 55, N-(bicyclo[2.2.1]heptan-2-yl)-1-(3-chloro-benzenesulfonylamino)cyclopropanecarboxamide] | 8.3 nM
32 | Cn1nccc1S(=O)(=O)NC1(C(=O)NC2C3CC4CC2CC(C(N)=O)(C4)C3)CC1 (stereo not drawn) [Example 58, E-4-[1-(1-methyl-1H-pyrazole-5-sulfonylamino)cyclopropanecarboxamido]-adamantan-1-carboxylic acid amide] | 17.3 nM
33 | NC(=O)C12CC3CC(C1)C(NC(=O)C1(NC(=O)c4cccc(F)c4F)CC1)C(C3)C2 (stereo not drawn) [Example 59] | 11.2 nM
34 | NC(=O)C12CC3CC(C1)C(NC(=O)C1(NC(=O)c4ccc(C(F)(F)F)cn4)CC1)C(C3)C2 (stereo not drawn) [Example 64] | 111 nM
35 | CC(C)(CNS(=O)(=O)c1cccc(Cl)c1)C(=O)NC1C2CC3CC1CC(C(N)=O)(C3)C2 (stereo not drawn) [Example 67, E-4-(3-(3-chlorobenzenesulfonylamino)-2,2-dimethylpropanamido)adamantan-1-carboxylic acid amide] | 7.1 nM
36 | CC(C)(CNS(=O)(=O)c1ccccc1)C(=O)NC1C2CC3CC1CC(C(N)=O)(C3)C2 (stereo not drawn) [Example 69, E-4-[3-(benzenesulfonylamino)-2,2-dimethylpropanamido]adamantan-1-carboxylic acid amide] | 28.6 nM
